Source: US8946203B2, “Benzodioxane inhibitors of leukotriene production” (Boehringer Ingelheim International GmbH, priority 2012, dated 2015)

The compounds below were run against T1, human LTA4 hydrolase (Homo sapiens, UniProt P09960) (assay: LTA4H Enzyme assay (cleavage of Arg-AMC, fluorescence)). Conditions: not given.
T1 sequence (P09960 1-611): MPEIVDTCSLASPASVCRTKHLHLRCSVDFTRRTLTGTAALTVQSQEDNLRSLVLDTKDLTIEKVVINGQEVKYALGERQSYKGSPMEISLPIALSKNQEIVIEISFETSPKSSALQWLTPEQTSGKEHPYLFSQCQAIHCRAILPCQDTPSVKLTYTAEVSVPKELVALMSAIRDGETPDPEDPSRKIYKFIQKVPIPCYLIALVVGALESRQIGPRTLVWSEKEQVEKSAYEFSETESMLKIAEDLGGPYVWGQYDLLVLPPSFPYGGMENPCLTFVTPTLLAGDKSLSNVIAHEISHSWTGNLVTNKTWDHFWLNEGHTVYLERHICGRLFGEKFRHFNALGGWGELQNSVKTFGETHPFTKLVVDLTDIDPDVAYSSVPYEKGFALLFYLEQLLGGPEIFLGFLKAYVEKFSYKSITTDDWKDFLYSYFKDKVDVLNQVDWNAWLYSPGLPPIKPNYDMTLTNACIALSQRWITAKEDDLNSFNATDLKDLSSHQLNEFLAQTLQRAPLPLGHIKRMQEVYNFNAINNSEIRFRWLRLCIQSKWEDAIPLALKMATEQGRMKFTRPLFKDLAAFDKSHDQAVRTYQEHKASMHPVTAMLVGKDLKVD
Assay type: biochemical
Description: The compounds of the invention are assessed for the ability to interact with human LTA4 hydrolase in an enzymatic assay that measures the ability of the enzyme to cleave the peptide bond of arginyl-aminomethylcoumarin (Arg-AMC). LTA4H Enzyme (1 nM final), Arg-AMC substrate (50 μM final), and compound are combined in a reaction buffer (50 mM Tris-HCl (pH 7.5), 100 mM KCl, 0.5% bovine serum albumin) at room temperature for 1 h. The formation of product is assessed by measuring the fluorescence of aminomethylcoumarin product (excitation wavelength 380 nm/emission wavelength 460 nm).

IC50 [nM] | Compound
0.61 | COC1CCN(Cc2ccc([C@H]3COc4ccccc4O3)cc2)CC1 [Example 98, 1-{4-[(2S)-2,3-dihydro-1,4-benzodioxin-2-yl]benzyl}-4-methoxypiperidine]

Same assay, conditions: LTA4H Enzyme 1 nM, Arg-AMC substrate 50 μM, room temperature 1 h, fluorescence; read-out: IC50 values of LTA4H Enzyme assay

IC50 [nM] | Compound
0.45 | c1ccc2c(c1)OC[C@H](c1ccc(CN3CCC[C@H]4CCCC[C@@H]43)cc1)O2 [Example 85, (4aR,8aS)-1-{4-[(2S)-2,3-dihydro-1,4-benzodioxin-2-yl]benzyl}decahydroquinoline]
0.54 | O[C@@H]1CCN(Cc2ccc([C@H]3COc4ccccc4O3)cc2)C1 [Example 88, (3R)-1-{4-[(2S)-2,3-dihydro-1,4-benzodioxin-2-yl]benzyl}pyrrolidin-3-ol]
0.77 | OCC1CCN(Cc2ccc([C@H]3COc4ccccc4O3)cc2)CC1 [Example 90, (1-{4-[(2S)-2,3-dihydro-1,4-benzodioxin-2-yl]benzyl}piperidin-4-yl)methanol]
0.54 | O[C@H]1CCN(Cc2ccc([C@H]3COc4ccccc4O3)cc2)C1 [Example 91, (3S)-1-{4-[(2S)-2,3-dihydro-1,4-benzodioxin-2-yl]benzyl}pyrrolidin-3-ol]
36 | O=C1CN(Cc2ccc([C@H]3COc4ccccc4O3)cc2)CN1 [Example 92, 1-{4-[(2S)-2,3-dihydro-1,4-benzodioxin-2-yl]benzyl}imidazolidin-4-one]
1.98 | CN(C)C1CCN(Cc2ccc([C@H]3COc4ccccc4O3)cc2)C1 (stereo partly drawn) [Example 93, 1-{4-[(2S)-2,3-dihydro-1,4-benzodioxin-2-yl]benzyl}-N,N-dimethylpyrrolidin-3-amine]
0.45 | O=C1CCCCN1C1CCN(Cc2ccc([C@H]3COc4ccccc4O3)cc2)CC1 [Example 94, 1′-{4-[(2S)-2,3-dihydro-1,4-benzodioxin-2-yl]benzyl}-1,4′-bipiperidin-2-one]
0.49 | c1ccc2c(c1)OC[C@H](c1ccc(CN(CC3CC3)C3CCCCC3)cc1)O2 [Example 95, N-(cyclopropylmethyl)-N-{4-[(2S)-2,3-dihydro-1,4-benzodioxin-2-yl]benzyl}cyclohexanamine]
0.22 | O=C(NCCO)C1CCN(Cc2ccc([C@H]3COc4ccccc4O3)cc2)CC1 [Example 96, 1-{4-[(2S)-2,3-dihydro-1,4-benzodioxin-2-yl]benzyl}-N-(2-hydroxyethyl)piperidine-4-carboxamide]
2.36 | C[C@H]1CC[C@H](NCc2ccc([C@H]3COc4ccccc4O3)cc2)CC1 [Example 100, trans-N-{4-[(2S)-2,3-dihydro-1,4-benzodioxin-2-yl]benzyl}-4-methylcyclohexanamine]
2.4 | c1ccc2c(c1)OC[C@H](c1ccc(CNC3CCCOC3)cc1)O2 (stereo partly drawn) [Example 103, N-{4-[(2S)-2,3-dihydro-1,4-benzodioxin-2-yl]benzyl}tetrahydro-2H-pyran-3-amine]
0.18 | CN(C)CCN(Cc1ccc([C@H]2COc3ccccc3O2)cc1)C1CCCCC1 [Example 104, N-cyclohexyl-N-{4-[(2S)-2,3-dihydro-1,4-benzodioxin-2-yl]benzyl}-N′,N′-dimethylethane-1,2-diamine]
1.35 | CC1COCCN1Cc1ccc([C@H]2COc3ccccc3O2)cc1 (stereo partly drawn) [Example 107, 4-{4-[(2S)-2,3-dihydro-1,4-benzodioxin-2-yl]benzyl}-3-methylmorpholine]
0.87 | CN1CC(NCc2ccc([C@H]3COc4ccccc4O3)cc2)CCC1=O (stereo partly drawn) [Example 108, 5-({4-[(2S)-2,3-dihydro-1,4-benzodioxin-2-yl]benzyl}amino)-1-methylpiperidin-2-one]
2.15 | CN1CCC(N(C)Cc2ccc([C@H]3COc4ccccc4O3)cc2)CC1 [Example 110, N-{4-[(2S)-2,3-dihydro-1,4-benzodioxin-2-yl]benzyl}-N,1-dimethylpiperidin-4-amine]
2.25 | Oc1ccc(CNCc2ccc([C@H]3COc4ccccc4O3)cc2)cc1 [Example 111, 4-[({4-[(2S)-2,3-dihydro-1,4-benzodioxin-2-yl]benzyl}amino)methyl]phenol]
1.07 | Oc1ccc2c(c1)CCN(Cc1ccc([C@H]3COc4ccccc4O3)cc1)C2 [Example 112, 2-{4-[(2S)-2,3-dihydro-1,4-benzodioxin-2-yl]benzyl}-1,2,3,4-tetrahydroisoquinolin-6-ol]
0.23 | O=C1CCC2(CCN(Cc3ccc([C@H]4COc5ccccc5O4)cc3)C2)N1 (stereo partly drawn) [Example 117, 7-{4-[(2S)-2,3-dihydro-1,4-benzodioxin-2-yl]benzyl}-1,7-diazaspiro[4.4]nonan-2-one]
0.1 | NC(=O)N1CCCC12CCN(Cc1ccc([C@H]3COc4ccccc4O3)cc1)C2 (stereo partly drawn) [Example 119, 7-{4-[(2S)-2,3-dihydro-1,4-benzodioxin-2-yl]benzyl}-1,7-diazaspiro[4.4]nonane-1-carboxamide]
0.51 | CN1CCCC2(CCN(Cc3ccc([C@H]4COc5ccccc5O4)cc3)CC2)C1=O [Example 120, 9-{4-[(2S)-2,3-dihydro-1,4-benzodioxin-2-yl]benzyl}-2-methyl-2,9-diazaspiro[5.5]undecan-1-one]
0.91 | CS(=O)(=O)N1CCCC12CCN(Cc1ccc([C@H]3COc4ccccc4O3)cc1)C2 (stereo partly drawn) [Example 122, 7-{4-[(2S)-2,3-dihydro-1,4-benzodioxin-2-yl]benzyl}-1-(methylsulfonyl)-1,7-diazaspiro[4.4]nonane]
2.45 | N#CCN1CCCC12CCN(Cc1ccc([C@H]3COc4ccccc4O3)cc1)C2 (stereo partly drawn) [Example 124, (7-{4-[(2S)-2,3-dihydro-1,4-benzodioxin-2-yl]benzyl}-1,7-diazaspiro[4.4]non-1-yl)acetonitrile]
0.12 | O=C1CCC2(CCN(Cc3ccc([C@H]4COc5cccnc5O4)cc3)C2)N1 (stereo partly drawn) [Example 127, 7-{4-[(3S)-2,3-dihydro[1,4]dioxino[2,3-b]pyridin-3-yl]benzyl}-1,7-diazaspiro[4.4]nonan-2-one]
0.65 | COCC(=O)N1CCCC12CCN(Cc1ccc([C@H]3COc4ccccc4O3)cc1)C2 (stereo partly drawn) [Example 128, 1-(7-{4-[(2S)-2,3-dihydro-1,4-benzodioxin-2-yl]benzyl}-1,7-diazaspiro[4.4]non-1-yl)-2-methoxyethanone]
0.23 | CN1CCC2(CCN(Cc3ccc([C@H]4COc5cccnc5O4)cc3)CC2)C1=O [Example 129, 8-{4-[(3S)-2,3-dihydro[1,4]dioxino[2,3-b]pyridin-3-yl]benzyl}-2-methyl-2,8-diazaspiro[4.5]decan-1-one]
0.51 | CN1CCCC2(CCN(Cc3ccc([C@H]4COc5ccccc5O4)cc3)CC2)C1=O [Example 130, 9-[(S)-4-(2,3-Dihydro-benzo[1,4]dioxin-2-yl)-benzyl]-2-methyl-2,9-diaza-spiro[5.5]undecan-1-one]
1.73 | O=C1CCN(Cc2ccc([C@H]3COc4ccccc4O3)cc2)CCN1 [Example 131, 1-{4-[(2S)-2,3-dihydro-1,4-benzodioxin-2-yl]benzyl}-1,4-diazepan-5-one]

Compound | IC50 [nM]
NC(=O)[C@H]1CCCC[C@H]1NCc1ccc([C@H]2COc3ccccc3O2)cc1 [Example 86, (1S,2R)-2-({4-[(2S)-2,3-dihydro-1,4-benzodioxin-2-yl]benzyl}amino)cyclohexane-carboxamide] | 0.92
OC[C@@H]1CCCC[C@H]1NCc1ccc([C@H]2COc3ccccc3O2)cc1 [Example 89, [(1R,2R)-2-({4-[(2S)-2,3-dihydro-1,4-benzodioxin-2-yl]benzyl}amino)cyclohexyl]methanol] | 1.4
